Test results from PMC4979471 (Cell Death Discovery, 2015).
Read-outs that look alike come from different tables or passages of the source.

How the values were obtained:
Test in all cases: Kinase selectivity, P33-radiolabeled assay
Assay type in all cases: biochemical
Settings in all cases: 10 μM ATP
ALK = target: T1, ALK (Homo sapiens, UniProt Q9UM73)
T1 construct: purchased Reaction Biology Corp
Procedure, shortened: (§1)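 Values show % enzyme activity normalised to DMSO vehicle. They come from one 10 μM compound concentration run twice, at an ATP level of 10 μM.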

CK2a = target: T2, CK2a (Homo sapiens, UniProt P68400)
T2 construct: purchased Reaction Biology Corp
Procedure, shortened: as §1

DDR2 = target: T3, DDR2 (Homo sapiens, UniProt Q16832)
T3 construct: purchased Reaction Biology Corp
T3 sequence (Q16832 22-855): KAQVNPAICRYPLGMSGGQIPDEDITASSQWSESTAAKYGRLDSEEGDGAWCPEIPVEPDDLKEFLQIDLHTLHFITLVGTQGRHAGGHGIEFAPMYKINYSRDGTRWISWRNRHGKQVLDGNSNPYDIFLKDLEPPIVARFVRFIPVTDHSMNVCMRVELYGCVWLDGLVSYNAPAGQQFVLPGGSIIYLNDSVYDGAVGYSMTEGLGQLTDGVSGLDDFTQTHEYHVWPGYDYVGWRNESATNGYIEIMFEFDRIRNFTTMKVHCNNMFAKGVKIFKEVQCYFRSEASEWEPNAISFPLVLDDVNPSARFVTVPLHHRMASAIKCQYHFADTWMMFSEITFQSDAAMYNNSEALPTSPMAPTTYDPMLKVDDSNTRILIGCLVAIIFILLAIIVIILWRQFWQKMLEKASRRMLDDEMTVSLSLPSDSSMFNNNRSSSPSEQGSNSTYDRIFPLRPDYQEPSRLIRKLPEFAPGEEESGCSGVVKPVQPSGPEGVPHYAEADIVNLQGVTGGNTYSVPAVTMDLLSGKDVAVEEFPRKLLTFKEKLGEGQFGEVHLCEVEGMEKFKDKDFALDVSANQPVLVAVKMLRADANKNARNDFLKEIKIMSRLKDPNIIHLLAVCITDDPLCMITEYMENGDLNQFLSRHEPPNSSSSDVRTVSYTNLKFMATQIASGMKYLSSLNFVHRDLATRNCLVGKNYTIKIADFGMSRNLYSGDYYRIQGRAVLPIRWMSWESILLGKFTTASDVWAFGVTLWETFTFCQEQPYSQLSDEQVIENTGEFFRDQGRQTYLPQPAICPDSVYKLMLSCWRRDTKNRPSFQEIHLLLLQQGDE
Procedure, shortened: as §1

JNK3 = target: T4, JNK3 (Homo sapiens, UniProt P53779)
T4 construct: purchased Reaction Biology Corp
Procedure, shortened: as §1

LCK = target: T5, LCK (Homo sapiens, UniProt P06239)
T5 construct: purchased Reaction Biology Corp
Procedure, shortened: as §1

MSSK1/STK23 = target: T6, MSSK1/STK23 (Homo sapiens, UniProt Q9UPE1)
T6 construct: purchased Reaction Biology Corp
Procedure, shortened: as §1

MYLK3 = target: T7, MYLK3 (Homo sapiens, UniProt Q32MK0)
T7 construct: purchased Reaction Biology Corp
T7 sequence (Q32MK0 1-819): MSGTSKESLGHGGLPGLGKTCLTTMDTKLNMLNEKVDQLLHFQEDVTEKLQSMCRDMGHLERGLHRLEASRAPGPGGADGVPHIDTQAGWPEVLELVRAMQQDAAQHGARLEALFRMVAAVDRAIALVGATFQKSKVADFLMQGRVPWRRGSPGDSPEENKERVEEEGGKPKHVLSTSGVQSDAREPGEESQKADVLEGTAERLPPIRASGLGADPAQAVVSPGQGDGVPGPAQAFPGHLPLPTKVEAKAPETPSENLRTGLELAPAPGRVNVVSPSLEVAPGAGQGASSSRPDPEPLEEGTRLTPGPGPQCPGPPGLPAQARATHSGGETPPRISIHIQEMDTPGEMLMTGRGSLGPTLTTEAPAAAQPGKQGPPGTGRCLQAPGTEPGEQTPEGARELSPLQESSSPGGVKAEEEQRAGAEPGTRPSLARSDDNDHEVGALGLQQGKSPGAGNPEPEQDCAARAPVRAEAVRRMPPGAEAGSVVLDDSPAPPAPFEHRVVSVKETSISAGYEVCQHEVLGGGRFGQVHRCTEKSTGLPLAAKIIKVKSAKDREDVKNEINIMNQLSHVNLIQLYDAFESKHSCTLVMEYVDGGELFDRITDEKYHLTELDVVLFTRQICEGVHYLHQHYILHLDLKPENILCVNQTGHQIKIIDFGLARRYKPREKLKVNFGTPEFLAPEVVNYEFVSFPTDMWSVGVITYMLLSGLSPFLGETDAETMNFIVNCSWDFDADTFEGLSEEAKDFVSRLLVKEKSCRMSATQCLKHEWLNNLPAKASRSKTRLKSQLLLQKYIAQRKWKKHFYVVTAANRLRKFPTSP
Procedure, shortened: as §1

PASK = target: T8, PASK (Homo sapiens, UniProt Q96RG2)
T8 construct: purchased Reaction Biology Corp
Procedure, shortened: as §1

PHKg1 = target: T9, PHKg1 (Homo sapiens, UniProt Q16816)
T9 construct: purchased Reaction Biology Corp
Procedure, shortened: as §1

ZAK/MLTK = target: T10, ZAK/MLTK (Homo sapiens, UniProt Q9NYL2)
T10 construct: purchased Reaction Biology Corp
Procedure, shortened: as §1

[1] = read-out: % Enzyme Activity (relative to DMSO controls) AVG
[2] = read-out: % Enzyme Activity (relative to DMSO controls) Data 1
[3] = read-out: % Enzyme Activity (relative to DMSO controls) Data 2

T2 sequence (P68400 whole entry): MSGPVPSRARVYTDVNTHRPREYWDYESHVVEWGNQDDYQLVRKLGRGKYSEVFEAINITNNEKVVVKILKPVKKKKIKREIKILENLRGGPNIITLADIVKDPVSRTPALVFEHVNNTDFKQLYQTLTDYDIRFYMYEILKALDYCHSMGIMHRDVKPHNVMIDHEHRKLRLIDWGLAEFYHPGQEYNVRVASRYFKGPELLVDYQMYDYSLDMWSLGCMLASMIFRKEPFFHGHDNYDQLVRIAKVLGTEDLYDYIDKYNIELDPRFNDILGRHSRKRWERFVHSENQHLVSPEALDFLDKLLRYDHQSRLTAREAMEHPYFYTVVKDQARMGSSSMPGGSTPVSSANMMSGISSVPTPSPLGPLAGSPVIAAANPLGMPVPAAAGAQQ
T6 sequence (Q9UPE1 whole entry): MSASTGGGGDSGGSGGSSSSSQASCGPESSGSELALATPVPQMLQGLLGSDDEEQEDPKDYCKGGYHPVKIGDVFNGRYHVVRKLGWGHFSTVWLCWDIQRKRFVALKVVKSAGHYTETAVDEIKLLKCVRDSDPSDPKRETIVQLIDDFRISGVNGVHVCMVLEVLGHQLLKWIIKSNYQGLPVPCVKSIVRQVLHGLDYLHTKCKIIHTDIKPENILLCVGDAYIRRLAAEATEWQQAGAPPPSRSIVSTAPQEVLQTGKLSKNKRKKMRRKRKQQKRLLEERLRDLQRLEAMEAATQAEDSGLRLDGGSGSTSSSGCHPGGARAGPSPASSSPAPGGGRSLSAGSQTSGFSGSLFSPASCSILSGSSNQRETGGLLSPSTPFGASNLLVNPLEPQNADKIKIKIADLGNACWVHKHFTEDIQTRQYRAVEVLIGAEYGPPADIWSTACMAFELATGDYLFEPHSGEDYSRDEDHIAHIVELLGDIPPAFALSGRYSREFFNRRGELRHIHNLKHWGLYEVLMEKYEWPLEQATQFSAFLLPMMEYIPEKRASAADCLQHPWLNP
T9 sequence (Q16816 whole entry): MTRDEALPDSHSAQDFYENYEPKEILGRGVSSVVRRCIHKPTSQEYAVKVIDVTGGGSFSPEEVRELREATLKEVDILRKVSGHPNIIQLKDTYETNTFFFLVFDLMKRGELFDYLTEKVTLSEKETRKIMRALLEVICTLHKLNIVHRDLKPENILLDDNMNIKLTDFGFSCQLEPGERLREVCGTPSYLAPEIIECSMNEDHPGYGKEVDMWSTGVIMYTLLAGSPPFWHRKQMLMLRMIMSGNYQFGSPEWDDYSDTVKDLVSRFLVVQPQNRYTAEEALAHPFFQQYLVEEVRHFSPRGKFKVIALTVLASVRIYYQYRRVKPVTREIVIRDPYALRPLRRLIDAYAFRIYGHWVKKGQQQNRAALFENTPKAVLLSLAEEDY
T8 sequence (Q96RG2 whole entry): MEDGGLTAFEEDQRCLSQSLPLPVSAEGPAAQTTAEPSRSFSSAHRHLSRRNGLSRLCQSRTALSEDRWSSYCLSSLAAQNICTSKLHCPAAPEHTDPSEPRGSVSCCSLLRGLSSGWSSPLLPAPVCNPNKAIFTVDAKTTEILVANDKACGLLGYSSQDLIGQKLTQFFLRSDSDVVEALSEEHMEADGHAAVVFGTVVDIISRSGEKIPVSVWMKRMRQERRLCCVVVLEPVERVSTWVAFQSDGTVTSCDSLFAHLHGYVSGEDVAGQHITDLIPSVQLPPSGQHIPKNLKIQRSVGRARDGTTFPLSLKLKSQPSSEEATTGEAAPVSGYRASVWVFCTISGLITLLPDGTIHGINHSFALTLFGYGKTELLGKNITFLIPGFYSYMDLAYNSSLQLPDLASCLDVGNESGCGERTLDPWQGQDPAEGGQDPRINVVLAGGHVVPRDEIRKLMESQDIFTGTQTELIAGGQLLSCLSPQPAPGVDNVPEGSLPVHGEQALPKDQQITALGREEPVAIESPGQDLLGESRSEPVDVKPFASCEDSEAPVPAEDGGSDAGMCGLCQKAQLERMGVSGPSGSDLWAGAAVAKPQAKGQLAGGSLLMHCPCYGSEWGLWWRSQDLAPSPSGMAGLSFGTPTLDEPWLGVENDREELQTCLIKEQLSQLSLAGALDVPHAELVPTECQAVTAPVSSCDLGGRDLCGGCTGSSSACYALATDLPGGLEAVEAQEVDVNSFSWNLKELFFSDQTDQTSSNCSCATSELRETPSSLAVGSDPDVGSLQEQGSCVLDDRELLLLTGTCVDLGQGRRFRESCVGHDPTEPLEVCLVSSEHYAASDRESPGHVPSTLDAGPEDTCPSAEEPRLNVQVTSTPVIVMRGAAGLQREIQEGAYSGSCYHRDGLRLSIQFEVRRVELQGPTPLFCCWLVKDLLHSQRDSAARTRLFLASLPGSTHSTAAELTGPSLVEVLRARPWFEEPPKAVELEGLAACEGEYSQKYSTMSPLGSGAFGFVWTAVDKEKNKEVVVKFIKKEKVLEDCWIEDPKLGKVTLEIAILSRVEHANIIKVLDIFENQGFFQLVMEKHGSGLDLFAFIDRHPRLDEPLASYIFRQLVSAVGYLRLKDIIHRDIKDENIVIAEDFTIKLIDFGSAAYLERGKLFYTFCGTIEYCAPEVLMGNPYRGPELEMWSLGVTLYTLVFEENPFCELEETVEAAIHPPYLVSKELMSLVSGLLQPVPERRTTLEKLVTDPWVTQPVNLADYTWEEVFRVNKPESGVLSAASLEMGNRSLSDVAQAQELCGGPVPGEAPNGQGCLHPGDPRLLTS
T1 sequence (Q9UM73 19-1620): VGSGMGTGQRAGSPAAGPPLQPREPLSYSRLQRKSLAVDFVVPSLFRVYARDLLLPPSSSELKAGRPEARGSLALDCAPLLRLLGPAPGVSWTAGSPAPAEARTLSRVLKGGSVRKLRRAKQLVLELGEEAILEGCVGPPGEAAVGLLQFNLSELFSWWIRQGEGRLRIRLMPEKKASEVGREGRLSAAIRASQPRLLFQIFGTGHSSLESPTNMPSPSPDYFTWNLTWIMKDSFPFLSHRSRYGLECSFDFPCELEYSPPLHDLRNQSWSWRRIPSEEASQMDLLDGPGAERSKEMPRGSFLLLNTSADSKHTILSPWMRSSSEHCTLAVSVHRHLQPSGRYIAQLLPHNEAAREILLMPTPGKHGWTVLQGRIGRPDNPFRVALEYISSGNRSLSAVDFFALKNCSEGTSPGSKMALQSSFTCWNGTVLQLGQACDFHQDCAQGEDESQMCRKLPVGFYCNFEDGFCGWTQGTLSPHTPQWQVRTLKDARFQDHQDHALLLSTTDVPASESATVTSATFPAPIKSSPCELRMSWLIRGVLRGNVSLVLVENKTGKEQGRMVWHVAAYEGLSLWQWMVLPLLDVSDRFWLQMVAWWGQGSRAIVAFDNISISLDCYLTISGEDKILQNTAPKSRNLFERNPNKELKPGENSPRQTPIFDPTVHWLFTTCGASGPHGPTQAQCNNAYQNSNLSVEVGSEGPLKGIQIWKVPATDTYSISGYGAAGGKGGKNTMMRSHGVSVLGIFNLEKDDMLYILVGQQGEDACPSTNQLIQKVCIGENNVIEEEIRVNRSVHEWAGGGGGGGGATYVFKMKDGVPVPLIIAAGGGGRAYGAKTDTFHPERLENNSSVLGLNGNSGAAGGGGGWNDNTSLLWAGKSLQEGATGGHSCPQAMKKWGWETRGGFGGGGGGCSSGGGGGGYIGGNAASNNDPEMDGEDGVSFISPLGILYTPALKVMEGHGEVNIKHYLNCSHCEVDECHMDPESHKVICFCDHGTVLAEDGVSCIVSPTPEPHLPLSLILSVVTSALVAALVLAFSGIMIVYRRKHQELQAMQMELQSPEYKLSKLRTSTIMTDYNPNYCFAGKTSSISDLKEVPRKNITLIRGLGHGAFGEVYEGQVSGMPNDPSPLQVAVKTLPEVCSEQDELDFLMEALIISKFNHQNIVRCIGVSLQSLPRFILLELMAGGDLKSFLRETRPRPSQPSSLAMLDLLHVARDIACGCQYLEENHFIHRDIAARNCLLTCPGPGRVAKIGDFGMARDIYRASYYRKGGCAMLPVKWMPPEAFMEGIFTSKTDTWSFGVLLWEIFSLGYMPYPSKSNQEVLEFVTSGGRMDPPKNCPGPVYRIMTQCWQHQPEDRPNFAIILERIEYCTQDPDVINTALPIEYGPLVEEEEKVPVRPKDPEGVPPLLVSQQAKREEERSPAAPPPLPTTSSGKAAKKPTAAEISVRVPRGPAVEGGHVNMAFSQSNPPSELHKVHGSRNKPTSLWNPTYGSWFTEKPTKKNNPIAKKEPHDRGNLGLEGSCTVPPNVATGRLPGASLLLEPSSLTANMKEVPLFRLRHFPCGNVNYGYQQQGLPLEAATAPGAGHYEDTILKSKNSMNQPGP
T10 sequence (Q9NYL2 whole entry): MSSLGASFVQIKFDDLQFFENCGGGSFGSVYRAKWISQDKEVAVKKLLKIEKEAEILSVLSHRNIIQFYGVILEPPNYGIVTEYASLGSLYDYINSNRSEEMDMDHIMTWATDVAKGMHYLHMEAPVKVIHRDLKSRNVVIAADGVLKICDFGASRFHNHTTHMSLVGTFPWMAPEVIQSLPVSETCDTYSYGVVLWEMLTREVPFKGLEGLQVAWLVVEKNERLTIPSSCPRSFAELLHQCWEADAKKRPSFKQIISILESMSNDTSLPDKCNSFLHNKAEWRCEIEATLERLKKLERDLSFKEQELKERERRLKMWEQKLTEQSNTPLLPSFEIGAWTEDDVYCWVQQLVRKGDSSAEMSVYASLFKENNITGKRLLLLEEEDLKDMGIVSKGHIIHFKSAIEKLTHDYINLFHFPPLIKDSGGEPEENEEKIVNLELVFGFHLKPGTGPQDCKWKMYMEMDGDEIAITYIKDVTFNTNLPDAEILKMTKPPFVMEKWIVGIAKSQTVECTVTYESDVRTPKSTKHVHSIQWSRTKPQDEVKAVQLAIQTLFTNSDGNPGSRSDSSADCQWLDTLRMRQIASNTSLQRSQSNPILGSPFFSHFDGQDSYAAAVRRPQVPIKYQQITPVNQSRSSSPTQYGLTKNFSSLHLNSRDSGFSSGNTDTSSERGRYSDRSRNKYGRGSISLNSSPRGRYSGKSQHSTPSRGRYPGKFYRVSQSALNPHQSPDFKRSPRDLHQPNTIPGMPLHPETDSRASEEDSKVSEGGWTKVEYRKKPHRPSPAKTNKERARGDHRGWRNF

For `CC(C)(C)C(=O)N1N=CC[C@H]1c1ccccc1` [GSK′963], the remaining activity at 10 µM (ALK; [1]) was 101%, the remaining activity at 10 µM (ALK; [2]) was 97.3% and the remaining activity at 10 µM (ALK; [3]) was 105%. The remaining activity at 10 µM (CK2a; [1]) was 99.4%, the remaining activity at 10 µM (CK2a; [2]) was 105% and the remaining activity at 10 µM (CK2a; [3]) was 93.8%. It also gave a remaining activity at 10 µM (DDR2; [1]) of 93.2%, a remaining activity at 10 µM (DDR2; [2]) of 94% and a remaining activity at 10 µM (DDR2; [3]) of 92.4%. It also gave a remaining activity at 10 µM (JNK3; [1]) of 100%, a remaining activity at 10 µM (JNK3; [2]) of 101% and a remaining activity at 10 µM (JNK3; [3]) of 100%. The remaining activity at 10 µM (LCK; [1]) was 96.4%, the remaining activity at 10 µM (LCK; [2]) was 96.1% and the remaining activity at 10 µM (LCK; [3]) was 96.7%. It also gave a remaining activity at 10 µM (MSSK1/STK23; [1]) of 107%, a remaining activity at 10 µM (MSSK1/STK23; [2]) of 108% and a remaining activity at 10 µM (MSSK1/STK23; [3]) of 105%. The remaining activity at 10 µM (MYLK3; [1]) was 102%, the remaining activity at 10 µM (MYLK3; [2]) was 99.7% and the remaining activity at 10 µM (MYLK3; [3]) was 105%. The remaining activity at 10 µM (PASK; [1]) was 102%, the remaining activity at 10 µM (PASK; [2]) was 103% and the remaining activity at 10 µM (PASK; [3]) was 101%. It also gave a remaining activity at 10 µM (PHKg1; [1]) of 102%, a remaining activity at 10 µM (PHKg1; [2]) of 103% and a remaining activity at 10 µM (PHKg1; [3]) of 101%. It also gave a remaining activity at 10 µM (ZAK/MLTK; [1]) of 105%, a remaining activity at 10 µM (ZAK/MLTK; [2]) of 106% and a remaining activity at 10 µM (ZAK/MLTK; [3]) of 104%.
